Experimental findings from US20110159304A1, “ANTI-SULPHATE REDUCING BACTERIA COMPOSITION COMPRISING 1,2-BENZISOTHIAZOL-3(2H)-ONE, IRGASAN, BENZYL-2-BROMOACETATE, 2,2-DIBROMO-2-CYANOACETAMIDE, AND 2-BROMO-2-NITROPROPAN-1,3-DIOL” (KOREA GAS CORPORATION, priority 2009, published 2011) are described below.

Where two headings read alike, the source gives them in different places.

Format in all cases: cell-based
Experiment [1] has as its system Desulfovibrio desulfuricans KCTC 5786. The experiment can be described thus: Antibacterial activity evaluation, paper disk clear zone and MIC. The following applies: for MIC minimum inhibitory concentration: paper disk test, concentrations 1.0-0.001%, 37° C.; for zone of inhibition at 0.1 % / zone of inhibition at 1 % / zone of inhibition at 0.001 % / zone of inhibition at 0.01 %: Desulfovibrio desulfuricans; for zone of inhibition at 0.001 %: antibacterial agent concentration 0.001%; for antibacterial activity relative to other commercially used antibacterial agents: compared by MIC with 1-hydroxypyridine-2-tionzinc, 2-methyl-isothiazolin-3-one and the like. The method, then:
Desulfovibrio desulfuricans KCTC 5786 was used as a test sulphate reducing bacteria strain.
The all materials used in the test, disk paper, medium and so on, were sterilized for 15 min at 121° C. Bacteria's culture and antibacterial activity test were performed in an anaerobic chamber (Anaerobic System, Form a Sci; condition maintaining not more than 5 ppm of oxygen concentration).
After culturing the test strain for not less than 3 days, the volume of the culture was adjusted to 10^5-7/mL to prepare for plating it on Desulfovibrio medium, and the test compounds were resolved in a suitable solvent for use (ethanol for lipid soluble compounds, and distilled water for water soluble compounds).
(§1) The experiment proceeded with varying the concentration of the compounds used in the experiment to 1.0%, 0.1%, 0.01%, and 0.001%. The 8 mm of a paper disk was placed on the plate prepared by plating the culture, and were inoculated with 50 μl of various concentrations of the compound. After culturing the strain for 24, and 48 hrs at 37° C., the clear zone (mm) representing antibacterial activity was measured and Minimum Inhibitory Concentration (MIC) was determined.

For experiment [2] the test system is unchanged. Nature of the experiment: Antibacterial activity test of antibacterial agent-added coating material (adhesive, primer). The method, then: as §1
Test equipment and materials, and test condition are as follows: • Coating material type: adhesive (Canusa), primer (Polyken) • Mixed antibacterial agent's concentration: control, 0.5, 1.0, 2.0, 5.0 wt %
As an adhesive specimen, the components were mixed by manual stirring in an oven at 150° C., and then an 1 mm-thick adhesive sheet was fabricated. As a primer specimen, a 0.2 mm-thick sheet having a primer dry film was fabricated. The specimen was diced into a size of 15 mm×15 mm, and after UV sterilization, the antibacterial activity of the specimen was assessed using the same environment and method as in the test method of Experiment Example 1 described above.

Experiment [3] has the same test system. Nature of the experiment: Antibacterial activity test after thermal shock (paper disk clear zone). The following applies: for clear zone after thermal shock / clear zone before thermal shock: 0.1% condition; for clear zone after thermal shock: after thermal shock (180° C., 1 hr); for antibacterial activity after thermal shock: after 180° C., 1 hour, 0.1%. The method, then: as §1
Applying the heat shrinkable sheet using flames of torch, the temperature increased to about 150° C. and the exposure time was around 15 minutes. […] After 1,2-benzisothiazol-3(2H)-one, irgasan, benzyl-2-bromoacetate, 2,2-dibromo-2-cyanoacetamide, and 2-bromo-2-nitropropan-1,3-diol were exposed to higher temperature (180° C.) for a longer time (1 hour), the antibacterial activity was measured at a concentration of 0.1% using the same method as Experiment Example 1 (see, Table 3, FIGS. 3a to 3e).

The mark [4] stands for this setting: antibacterial agent concentration 0.1%, 8 mm paper disk, 50 μl, — = negative.
The mark [5] stands for this setting: antibacterial agent concentration 1%, 8 mm paper disk, 50 μl, — = negative.
Where [6] appears, read: KCTC5786, read-out: CZ (mm) clear zone.
[7] abbreviates: KCTC5786, antibacterial agent concentration 0.1%, 8 mm paper disk, 50 μl, — = negative, read-out: CZ (mm) clear zone.
Setting [8] is: KCTC5786, antibacterial agent concentration 1%, 8 mm paper disk, 50 μl, — = negative, read-out: CZ (mm) clear zone.
Setting [9] is: adhesive (Canusa) with 0.5 wt % antibacterial agent.
Setting [10] is: adhesive (Canusa) with 1.0 wt % antibacterial agent.
Setting [11] is: adhesive (Canusa) with 2.0 wt % antibacterial agent.
Setting [12] is: adhesive (Canusa) with 5.0 wt % antibacterial agent.
The mark [13] stands for this setting: primer (Polyken) with 0.5 wt % antibacterial agent.
The mark [14] stands for this setting: primer (Polyken) with 1.0 wt % antibacterial agent.
Where [15] appears, read: primer (Polyken) with 2.0 wt % antibacterial agent.
The mark [16] stands for this setting: primer (Polyken) with 5.0 wt % antibacterial agent.
Setting [17] is: KCTC5786, 8 mm paper disk, 50 μl, — = negative, read-out: CZ (mm) clear zone.
[18] abbreviates: KCTC5786, antibacterial agent concentration 0.01%, 8 mm paper disk, 50 μl, — = negative, read-out: CZ (mm) clear zone.

As to `[O-]n1ccccc1=S.[O-]n1ccccc1=S.[Zn+2]` [1-hydroxypyridine-2-thionezinc, reference compound], the figures for the “CZ (mm) clear zone” value in experiment [1] (setting [4]) and in experiment [1] (setting [5]) were 1 mm and 3.5 mm, respectively. Further, the “MIC minimum inhibitory concentration” value in experiment [1] is 0.1%.
`O=C(Nc1ccc(Cl)cc1)Nc1ccc(Cl)c(Cl)c1` [3,4,4-trichloro-Carbanilide, reference compound]: in experiment [1], the “MIC minimum inhibitory concentration” value is reported as ≥ 1%.
For `O=CCCCC=O` [Glutar-di-aldehyde, 50 wt %, Glutar-di-aldehyde, reference compound], the “CZ (mm) clear zone” value in experiment [1] (setting [4]) stood at 6 mm; in experiment [1] (setting [5]) it was 12 mm. Besides, in experiment [1], the “MIC minimum inhibitory concentration” value turned out to be 0.1%.
Regarding `Cn1sccc1=O` [2-methyl-4-isothiazoline-3-one, reference compound], in experiment [1] (setting [6]), the zone of inhibition at 0.1 % amounted to 5 mm and the zone of inhibition at 1 % turned out to be 12 mm. Also, the “MIC minimum inhibitory concentration” value in experiment [1] is 0.1%.
As for `CCCCNC(=O)OCC#CI` [3-iodo-2-propynyl n-butylcarbamate, 97%, 3-iodo-2-propynyl n-butylcarbamate, reference compound], the zone of inhibition at 0.1 % in experiment [1] (setting [7]) was 3 mm. Moreover, the zone of inhibition at 1 % in experiment [1] (setting [8]) amounted to 5.5 mm. The “MIC minimum inhibitory concentration” value in experiment [1] stood at 0.1%.
In the same order, the values of `N#Cc1c(Cl)c(Cl)c(Cl)c(C#N)c1Cl` [Chlorothalonil, reference compound] are 2 mm, 4 mm and 0.1%.
For `O=C(CBr)OCc1ccccc1` [Benzyl-2-bromoacetate, benzyl-2-bromoacetate], the “Clear zone (mm), adhesive” value in experiment [2] (setting [9]) is 24 mm; in experiment [2] (setting [10]) it was 30 mm; in experiment [2] (setting [11]) it was 34 mm; in experiment [2] (setting [12]), “≧39 mm”. Also, the “Clear zone (mm), primer” value in experiment [2] (setting [13]) is “≧26 mm”; in experiment [2] (setting [14]) it was “≧32 mm”; in experiment [2] (setting [15]), “≧34 mm”; in experiment [2] (setting [16]) it was “≧39 mm”. The zone of inhibition at 0.001 % in experiment [1] (setting [17]) is 35 mm. The zone of inhibition at 0.01 % in experiment [1] (setting [18]) was ≥ 39 mm. Besides, the zone of inhibition at 0.1 % in experiment [1] (setting [7]) was ≥ 39 mm. Besides, in experiment [1] (setting [8]), the zone of inhibition at 1 % is ≥ 39 mm. Besides, the “antibacterial activity relative to other commercially used antibacterial agents” value in experiment [1] is recorded as 10 times. Moreover, the “clear zone after thermal shock” value in experiment [3] is reported as 36 mm. In addition, the “clear zone before thermal shock” value in experiment [3] was 39 mm. Besides, the “antibacterial activity after thermal shock” value in experiment [3] is on record as “maintained the excellent antibacterial activity”.
Turning to `N#CC(Br)(Br)C(N)=O` [2,2-dibromo-2-cyanoacetamide], the “Clear zone (mm), adhesive” value is given as 2 mm in experiment [2] (setting [9]), 2.5 mm in experiment [2] (setting [10]), “≧26 mm” in experiment [2] (setting [11]) and “≧30.5 mm” in experiment [2] (setting [12]). Further, the entries for the “Clear zone (mm), primer” value in experiment [2] (setting [13]), in experiment [2] (setting [15]) and in experiment [2] (setting [16]) were 1.5 mm, 1 mm and 6.5 mm, respectively. For the same molecule, the zone of inhibition at 0.001 % in experiment [1] (setting [17]) was ≥ 39 mm. In experiment [1] (setting [18]), the zone of inhibition at 0.01 % is ≥ 39 mm. Moreover, the zone of inhibition at 0.1 % in experiment [1] (setting [7]) was ≥ 39 mm. In experiment [1] (setting [8]), the zone of inhibition at 1 % is ≥ 39 mm. Further, the “antibacterial activity relative to other commercially used antibacterial agents” value in experiment [1] is reported as 10 times. Also, in experiment [3], the “clear zone after thermal shock” value worked out at 18.5 mm. For the same molecule, the “clear zone before thermal shock” value in experiment [3] came out at 39.5 mm. Moreover, the “antibacterial activity after thermal shock” value in experiment [3] is recorded as “maintained the excellent antibacterial activity”.
As for `c1ccc2[nH]c(-c3cscn3)nc2c1` [Thiabendazole minimum 99%, Thiabendazole, reference compound], the “MIC minimum inhibitory concentration” value in experiment [1] is reported as ≥ 1%.
On to `Oc1cc(Cl)ccc1Oc1ccc(Cl)cc1Cl` [Irgasan, irgasan], for which the “Clear zone (mm), primer” value in experiment [2] (setting [13]) was 3.5 mm. Further, the “Clear zone (mm), primer” value in experiment [2] (setting [14]) was 1.5 mm. For the same molecule, in experiment [2] (setting [15]), the “Clear zone (mm), primer” value turned out to be 1.5 mm. Further, the “Clear zone (mm), primer” value in experiment [2] (setting [16]) is recorded as 6 mm. Further, in experiment [1] (setting [6]), the zone of inhibition at 0.01 % came out at 5 mm, the zone of inhibition at 0.1 % is 11 mm and the zone of inhibition at 1 % is 14 mm. The “antibacterial activity relative to other commercially used antibacterial agents” value in experiment [1] is listed as 10 times. Besides, in experiment [3], the “clear zone after thermal shock” value is recorded as 13 mm, the “clear zone before thermal shock” value is on record as 13 mm and the “antibacterial activity after thermal shock” value is “maintained the excellent antibacterial activity”.
For `Cc1cc(O)cc(C)c1Cl` [4-chloro-3,5-dimethylphenol, reference compound], the zone of inhibition at 0.1 % in experiment [1] (setting [7]) stood at 1 mm. The zone of inhibition at 1 % in experiment [1] (setting [8]) is 16 mm. Also, in experiment [1], the “MIC minimum inhibitory concentration” value is 0.1%.
Regarding `O=c1[nH]sc2ccccc12` [1,2-benzisothiazol-3(2H)-one], the “Clear zone (mm), adhesive” value stood at 15 mm in experiment [2] (setting [9]), 18 mm in experiment [2] (setting [10]), 19 mm in experiment [2] (setting [11]) and 25 mm in experiment [2] (setting [12]). For the same molecule, the “Clear zone (mm), primer” value in experiment [2] (setting [14]) was 7.5 mm; in experiment [2] (setting [15]), 8.5 mm; in experiment [2] (setting [16]), 17.5 mm. Moreover, the zone of inhibition at 0.001 % in experiment [1] (setting [17]) worked out at 1 mm. The zone of inhibition at 0.01 % in experiment [1] (setting [18]) is 2.5 mm. Further, the zone of inhibition at 0.1 % in experiment [1] (setting [7]) turned out to be 6.5 mm. Besides, in experiment [1] (setting [8]), the zone of inhibition at 1 % came out at 13.5 mm. The “antibacterial activity relative to other commercially used antibacterial agents” value in experiment [1] is listed as 10 times. In addition, in experiment [3], the “clear zone after thermal shock” value came to 14.5 mm. Besides, the “clear zone before thermal shock” value in experiment [3] amounted to 16 mm. The “antibacterial activity after thermal shock” value in experiment [3] is “maintained the excellent antibacterial activity”.
Turning to `O=[N+]([O-])C(Br)(CO)CO` [2-bromo-2-nitropropan-1,3-diol], the “Clear zone (mm), adhesive” value in experiment [2] (setting [9]) was determined as 5.5 mm; in experiment [2] (setting [10]), 10.5 mm; in experiment [2] (setting [11]) it was 13 mm; in experiment [2] (setting [12]) it was 14.5 mm. Further, the “Clear zone (mm), primer” value is 9 mm in experiment [2] (setting [13]), 9 mm in experiment [2] (setting [14]), 2 mm in experiment [2] (setting [15]) and 16.5 mm in experiment [2] (setting [16]). Also, the zone of inhibition at 0.01 % in experiment [1] (setting [18]) was 1.5 mm. Besides, the zone of inhibition at 0.1 % in experiment [1] (setting [7]) was 8 mm. Besides, the zone of inhibition at 1 % in experiment [1] (setting [8]) was 18.5 mm. Besides, the “antibacterial activity relative to other commercially used antibacterial agents” value in experiment [1] was determined as 10 times. The “clear zone after thermal shock” value in experiment [3] is given as 25 mm. Also, the “clear zone before thermal shock” value in experiment [3] turned out to be 20 mm. Further, the “antibacterial activity after thermal shock” value in experiment [3] is reported as “maintained the excellent antibacterial activity”.
As for “Molybdenum (VI) oxide [Molybdenum (VI) oxide 99.99%, reference compound]”, the “CZ (mm) clear zone” value in experiment [1] (setting [5]) is recorded as 6 mm. In addition, in experiment [1], the “MIC minimum inhibitory concentration” value is listed as 1.0%.
